From patent US6750244B2, “Compounds active at a novel site on receptor-operated calcium channels useful for treatment of neurological disorders and diseases” (NPS Pharmaceuticals, Inc., priority 1993, dated 2004)
Several values for one entry are separate records, joined by “and”; a condition that tells them apart may be missing. Equal entries are not always repeated. Structures can show the parent of a compound that is named as a salt. Where two headings read alike, the source gives them in different places.

Tests used:
[1] = target: NMDA receptor-ionophore complex (site labeled by [3H]MK-801); test: Inhibition of [3H]MK-801 binding in rat cortical/hippocampal washed membrane preparations; conditions: read-out: IC50 (μM) vs. [3H]MK-801
NMDA receptor = test: Inhibition of NMDA/glycine-induced increases in intracellular calcium in cultured rat cerebellar granule cells (RCGC); format: cell-based; conditions: read-out: IC50 (μM) vs. NMDA
[2] = rat cortical/hippocampal washed membranes
[3] = NMDA/glycine-induced increases in intracellular calcium, cultured rat cerebellar granule cells

SMILES | IC50 [1, 2] | IC50 (NMDA receptor; [3]) | also measured
COc1ccc(F)cc1C(CCN)c1cccc(F)c1 (stereo not shown) [Compound 61, 3-(3-fluorophenyl)-3-(3-fluoro-6-methoxyphenyl)-1-propylamine] | 0.324 µM | 0.134 µM | 
NCCC(c1ccsc1)c1cccc(F)c1 (stereo not shown) [Compound 90] | 1.4 µM | 0.27 µM | 
NCCC(Cc1ccccc1)c1ccccc1 (stereo not shown) [Compound 125] | 6.7 µM | 1.7 µM | 
COc1ccccc1CC(=O)NC(CC(C)C)C(=O)NCCCCCNCCCNCCCNC(=O)C(N)CCCNC(=N)N (stereo not shown) [Compound 7] | 129 µM | 0.163 µM | 
NCCCc1ccccc1-c1cccc(F)c1 [Compound 124] | 14.3 µM | 3.5 µM | 
N=C(N)CC(c1cccc(F)c1)c1cccc(F)c1 [Compound 89] | 1.2 µM | 0.24 µM | 
NCCc1ccccc1Cc1ccccc1 [Compound 128] |  | 0.646 µM | IC50 [1]: 5.5 µM
COc1ccccc1C(CCN)c1ccccc1OC [Compound 62, 3,3-bis(2-methoxyphenyl)-1-propylamine] | 0.617 µM | 0.177 µM | 
CC(NCCC(c1cccc(F)c1)c1cccc(F)c1)c1ccccc1 (stereo not shown) [Compound 93] | 26.9 µM | 0.486 µM | 
NCCCC(c1ccc(F)cc1)c1ccc(F)cc1 [Compound 104] | > 10 µM | 7.98 µM | 
NCCC1c2ccccc2Sc2ccccc21 [Compound 183] | 5.01 µM | 0.676 µM | 
CCC(NCCC(c1ccccc1)c1ccccc1)c1cccc(F)c1 (stereo not shown) [Compound 164] | 18.3 µM | 0.475 µM | 
CCNC[C@H](C)C(c1cccc(F)c1)c1cccc(F)c1 [Compound 39] | 2.9 µM | 0.251 µM | 
NCCC(c1cccc(F)c1)c1cccc(Cl)c1 (stereo not shown) [Compound 30, 3-(3-fluorophenyl)-3-(3-chlorophenyl)-1-propylamine] | 0.407 µM | 0.035 µM | 
CCC(NCCC(c1ccccc1)c1ccccc1)c1cccc([N+](=O)[O-])c1 (stereo not shown) [Compound 170] | 57 µM | 0.238 µM | 
C[C@H](C(c1ccccc1)c1ccccc1)[C@@H](C)N [Compound 86] | 6 µM | 1.2 µM | 
NCCCOCCCCOCCCNC(=O)Cc1c[nH]c2ccc(Br)cc12 [Compound 16] | 28.8 µM | 5.1 µM | 
Cc1ccccc1C(CCN)c1cccc(F)c1 (stereo not shown) [Compound 27, 3-(3-fluorophenyl)-3-(2-methylphenyl)-1-propylamine] | 0.18 µM | 0.071 µM | 
CNCCC(Oc1cccc(F)c1)c1cccc(F)c1 (stereo not shown) [Compound 145] | 0.626 µM | 0.098 µM | 
NCCN1c2ccccc2CCc2ccccc21 [Eli Lilly Compound, reference compound] | 1.17 µM | 0.609 µM | 
NCCC(Oc1ccccc1)c1cccc(Cl)c1 (stereo not shown) [Compound 148] | 0.373 µM | 0.549 µM | 
NCCCc1ccccc1Cc1ccccc1 [Compound 127] | 17.5 µM | 1.2 µM | 
CCC(NCCC(c1ccccc1)c1ccccc1)c1ccccc1OC (racemic) [Compound 167, (R,S)-N-1-(2-methoxyphenylpropyl)-3,3-diphenylpropylamine] | 14.5 µM | 0.08 µM | 

SMILES | IC50 [1, 2] | IC50 (NMDA receptor; [3]) | also measured
COc1cccc(C(CCN)c2cccc(Cl)c2)c1 (stereo not shown) [Compound 136] | 0.706 µM | 0.139 µM | 
CNCC=C(c1cccc(F)c1)c1cccc(F)c1 [Compound 106] | 1.31 µM | 0.767 µM | 
COc1ccccc1CC(=O)NC(CC(N)=O)C(=O)NCCCCCNCCCNCCCNC(=O)C(N)CCCCN (stereo not shown) [Compound 8] | 219 µM | 0.099 µM | 
COc1ccccc1OC(CCN)c1cccc(F)c1 (stereo not shown) [Compound 121] | 0.67 µM | 0.656 µM | 
Cc1cccc(C(CCN)c2cccc(F)c2)c1 (stereo not shown) [Compound 28, 3-(3-fluorophenyl)-3-(3-methylphenyl)-1-propylamine] | 2.3 µM | 0.38 µM | 
Fc1cccc(C(=C2CCNCC2)c2cccc(F)c2)c1 [Compound 110] | 13.3 µM | 42.7 µM | 
NCC=C(c1cccc(F)c1)c1cccc(F)c1 [Compound 139, 3,3-bis(3-fluorophenyl)-prop-2-ene-1-amine] | 5.6 µM | 1.97 µM and 1.4 µM | 
NCCC1c2ccccc2C=Cc2ccccc21 [Compound 184] | 1.51 µM and 1.65 µM | 1.5 µM | 
CCC(CC)(CN)C(c1cccc(F)c1)c1cccc(F)c1 [Compound 80, 3,3-bis(3-fluorophenyl)-2,2-diethyl-1-propylamine] | 182 µM | 28 µM | 
NCC=C(c1ccccc1)c1ccccc1 [Compound 81, 3,3-diphenyl-prop-2-ene-1-amine] | 6.1 µM | 1.4 µM | 
NCCC(c1cccc(F)c1)c1ccccc1F (stereo not shown) [Compound 52, 3-(2-fluorophenyl)-3-(3-fluorophenyl)-1-propylamine] | 0.38 µM | 0.102 µM | 
CNCCC(c1ccccc1)c1cccc(F)c1 (stereo not shown) [Compound 108, N-methyl-3-(3-fluorophenyl)-3-phenyl-1-propylamine] | 0.942 µM | 1.06 µM | 
Cc1c(F)cccc1C(CCN)c1cccc(F)c1 (stereo not shown) [Compound 56, 3-(3-fluorophenyl)-3-(2-methyl-3-fluorophenyl)-1-propylamine] | 0.955 µM | 0.218 µM | 
CN(C)CCC(c1cccc(F)c1)c1cccc(F)c1 [Compound 123, N,N-dimethyl-3,3-bis(3-fluorophenyl)-1-propylamine] | > 3 µM | 9.6 µM | 
Fc1cccc(C(CCNCc2ccccc2)c2cccc(F)c2)c1 [Compound 92] | 20.2 µM | 1.3 µM | 
CCC(CCN)c1cccc(F)c1 (stereo not shown) [Compound 35] | 25.1 µM | 6.2 µM | 
COc1ccccc1CC(=O)NCCCOCCCCOCCCN [Compound 18] | 34 µM | 5.1 µM | 
CCC(NCCC(c1ccccc1)c1ccccc1)c1cccc(Br)c1 (stereo not shown) [Compound 161] | 5.62 µM | 0.247 µM | 
COc1ccccc1CC(=O)NC(CC(N)=O)C(=O)NCCCCCNCCCNCCCNC(=O)C(N)CCCNC(=N)N (stereo not shown) [Compound 5] | 15.2 µM | 0.102 µM | IC50 (NMDA receptor; TFA salt): 0.07 µM
NCCC1c2ccccc2COc2ccccc21 (stereo not shown) [Compound 187, 11-(2-Aminoethyl)-11H-10,11-dihydrodibenzo[b,c]oxepine hydrochloride] |  | 1.78 µM | IC50 ([1]; rat cortical/hippocampal washed membranes, hydrochloride): 2.01 µM and 2.06 µM
NCCC(c1ccccc1)c1cccc(F)c1 (stereo not shown) [Compound 32, 3-(3-fluorophenyl)-3-phenyl-1-propylamine] | 0.799 µM | 0.284 µM | 
COc1cccc(/C(=C\CN)c2cccc(F)c2)c1 [Compound 141] | 8.97 µM | 4.26 µM | 
Cc1ccc(C(CCN)c2cccc(F)c2)cc1 (stereo not shown) [Compound 29, 3-(3-fluorophenyl)-3-(4-methylphenyl)-1-propylamine] | 5.8 µM | 1.9 µM | 

SMILES | IC50 [1, 2] | IC50 (NMDA receptor; [3]) | also measured
C[C@H](N)[C@H](C)C(c1ccccc1)c1ccccc1 [Compound 87] | 3 µM | 0.657 µM | 
CCC(NCCC(c1cccc(F)c1)c1cccc(F)c1)c1ccccc1 (stereo not shown) [Compound 94] | 22.6 µM | 0.248 µM | 
NCC(Cc1cccc(F)c1)Cc1cccc(F)c1 [Compound 126] | 6 µM | 0.398 µM | 
CCC(NCCC(c1ccccc1)c1ccccc1)c1cccc(C)c1 (stereo not shown) [Compound 168] | 17.4 µM | 0.092 µM | 
NCCCOCCCCOCCCNC(=O)Cc1ccc2ccccc2c1 [Compound 17] | 36.3 µM | 9.6 µM | 
CNCCC=C1c2ccccc2CCc2ccccc21 [Nortriptyline, reference compound] |  |  | IC50 [1]: 5.67 µM; IC50 (NMDA receptor): 3.7 µM
NCCC(Oc1cccc(Cl)c1)c1cccc(Cl)c1 (stereo not shown) [Compound 149] | 0.15 µM | 0.085 µM | 
Fc1cccc(C(c2cccc(F)c2)C2CCNCC2)c1 [Compound 112] | 21 µM | 28 µM and 28.9 µM | 
CNC[C@H](C)C(c1cccc(F)c1)c1cccc(F)c1 [Compound 66] | 1.2 µM | 0.236 µM | 
NCCC(c1cccc(O)c1)c1cccc(F)c1 (stereo not shown) [Compound 101] | 2 µM | 0.912 µM | 
CNCCC(c1ccccc1)c1ccccc1 [Compound 67, N-methyl-3,3-diphenylpropylamine] | 2.9 µM | 11 µM | 
NCCC(Oc1ccccc1)c1ccccc1 (stereo not shown) [Compound 146] | 0.372 µM | 0.829 µM | 
NCCC(Oc1ccccc1)c1cccc(F)c1 (stereo not shown) [Compound 118] | 0.24 µM | 0.409 µM | 
CCC(NCCC(c1ccccc1)c1ccccc1)c1ccccc1 (stereo not shown) [Compound 91] | 14.1 µM | 0.162 µM | 
CCCC(NCCC(c1ccccc1)c1ccccc1)c1ccccc1 (stereo not shown) [Compound 157] | 23.2 µM | 0.142 µM | 
COc1ccc(C(=CCN)c2cccc(F)c2)cc1F [Compound 172, (E))- and (Z)-3-(3-Fluoro-4-methoxy)-3-(3-fluorophenyl)allylamine hydrochloride] | 37.3 µM | 38 µM | 
NCC[C@H](Oc1cccc(F)c1)c1ccccc1 [Compound 186] | 0.123 µM | 0.155 µM | 
c1ccc(C(CCNC(c2ccccc2)C2CC2)c2ccccc2)cc1 (stereo not shown) [Compound 171] | 39.6 µM | 0.31 µM | 
OC1(C(c2cccc(F)c2)c2cccc(F)c2)CCNC1 (stereo not shown) [Compound 84] | 23.4 µM | 7.9 µM | 
NCC(Cc1ccccc1)c1ccccc1 (stereo not shown) [Compound 133] | 3 µM | 0.76 µM | 
NCC(c1cccc(F)c1)c1cccc(F)c1 [Compound 98, 2,2-bis(3-fluorophenyl)-1-ethylamine] | 52.5 µM | 7.9 µM | 
NCCC(c1cccc(F)c1)c1cc(F)cc(F)c1 (stereo not shown) [Compound 96, 3-(3,5-difluorophenyl)-3-(3-fluorophenyl)-1-propylamine] | 1.1 µM | 0.187 µM | 
NCCC(c1cccc(F)c1)c1cccs1 (stereo not shown) [Compound 83] | 0.794 µM | 0.342 µM | 
